In PubChem BioAssay AID328 (DTP/NCI, 2004):
“And” between values parts separate entries of the source, which are not always exact repeats. Equal values may be shown once. Inconclusive results and toxic doses are left out.

Test system: BDF1 mice, P388 leukemia ip, median survival T/C
Assay: NCI In Vivo Anticancer Drug Screen. Data for tumor model P388 Leukemia (intraperitoneal) in B6D2F1 (BDF1) mice
Conditions: endpoint: median survival time, higher = longer survival
In short: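 Antitumour effect was judged in vivo: survival in drug-treated mice, normalised to that of vehicle-dosed controls, gives the reported T/C.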

[1] = dose: 100.0 mg/kg/injection, schedule: Q01DX009 (ip), vehicle: saline with Tween-80
[2] = dose: 100.0 mg/kg/injection, schedule: Q04DX003 (ip), vehicle: saline with Tween-80
[3] = dose: 200.0 mg/kg/injection, schedule: Q01DX009 (ip), vehicle: saline with Tween-80
[4] = dose: 200.0 mg/kg/injection, schedule: Q04DX003 (ip), vehicle: saline with Tween-80
[5] = dose: 400.0 mg/kg/injection, schedule: Q01DX009 (ip), vehicle: saline with Tween-80
[6] = dose: 400.0 mg/kg/injection, schedule: Q04DX003 (ip), vehicle: saline with Tween-80
[7] = dose: 100.0 mg/kg/injection, schedule: Q01DX009 (ip), vehicle: saline
[8] = dose: 200.0 mg/kg/injection, schedule: Q04DX003 (ip), vehicle: saline
[9] = dose: 50.0 mg/kg/injection, schedule: Q01DX009 (ip), vehicle: saline with Tween-80
[10] = dose: 100.0 mg/kg/injection, schedule: Q04DX003 (ip), vehicle: Klucel (hydroxypropylcellulose) (HPC)
[11] = dose: 200.0 mg/kg/injection, schedule: Q04DX003 (ip), vehicle: Klucel (hydroxypropylcellulose) (HPC)
[12] = dose: 400.0 mg/kg/injection, schedule: Q04DX003 (ip), vehicle: Klucel (hydroxypropylcellulose) (HPC)
[13] = dose: 25.0 mg/kg/injection, schedule: Q04DX003 (ip), vehicle: saline
[14] = dose: 50.0 mg/kg/injection, schedule: Q04DX003 (ip), vehicle: saline
[15] = dose: 12.5 mg/kg/injection, schedule: Q01DX009 (ip), vehicle: saline with Tween-80
[16] = dose: 25.0 mg/kg/injection, schedule: Q01DX009 (ip), vehicle: saline with Tween-80
[17] = dose: 100.0 mg/kg/injection, schedule: Q04DX003 (ip), vehicle: saline
[18] = dose: 200.0 mg/kg/injection, schedule: Q01DX009 (ip), vehicle: saline
[19] = dose: 400.0 mg/kg/injection, schedule: Q04DX003 (ip), vehicle: saline

Structure (SMILES): c1ccc(C(=NCCN=C(c2ccccc2)c2ccccc2)c2ccccc2)cc1
- T/C [1]: 87 % of control
- T/C [2]: 100 % of control
- T/C [3]: 104 % of control
- T/C [4]: 91 % of control
- T/C [5]: 112 % of control
- T/C [6]: 95 % of control

Structure (SMILES): NC(=S)c1cn(C2OC(CO)C(O)C2O)c2ncnc(N)c12 (stereo not drawn)
- T/C (dose: 3.3 mg/kg/injection, schedule: Q01DX009 (ip), vehicle: saline with Tween-80): 166 % of control
- T/C (dose: 5.0 mg/kg/injection, schedule: Q01DX009 (ip), vehicle: saline with Tween-80): 100 % of control

Structure (SMILES): COc1ccc(/C=N/n2c(=O)[nH]nc(C)c2=O)c(OC)c1OC
- T/C [1]: 100 % of control
- T/C [3]: 122 % of control
- T/C [5]: 95 % of control

Structure (SMILES): CC1(c2ccccc2)O[C@@H]2C[C@H]3[C@@H]4CCC5=CC(=O)C=C[C@]5(C)[C@@]4(F)[C@@H](O)C[C@]3(C)[C@]2(C(=O)CO)O1 (stereo partly drawn)
- T/C (dose: 50.0 mg/kg/injection, schedule: Q01DX009 (ip), vehicle: saline): 100 % of control
- T/C [7]: 100 % of control
- T/C (dose: 132.0 mg/kg/injection, schedule: Q04DX003 (ip), vehicle: saline): 90 % of control and 95 % of control (2×)
- T/C [8]: 86 % of control and 95 % of control and 100 % of control
- T/C (dose: 300.0 mg/kg/injection, schedule: Q04DX003 (ip), vehicle: saline): 105 % of control
- T/C (dose: 400.0 mg/kg/injection, schedule: Q04DX003 (ip), vehicle: alcohol): 105 % of control

Structure (SMILES): CCP(=Nc1cc(C(c2ccccc2)(c2ccccc2)c2ccccc2)cc(C(C)(C)C)c1O)(c1ccccc1)c1ccccc1
- T/C [9]: 107 % of control
- T/C [1]: 116 % of control
- T/C [3]: 89 % of control

Structure (SMILES): NC(=O)C1CCCC12NC(=O)NC2=O (stereo not drawn)
- T/C [10]: 109 % of control
- T/C [11]: 100 % of control
- T/C [12]: 95 % of control

Structure (SMILES): [NH-]C(Cc1ccc(O)cc1)C(=O)O.[NH-]C(Cc1ccc(O)cc1)C(=O)O.[Ni+2] (stereo not drawn)
- T/C (dose: 2.0 mg/kg/injection, schedule: Q01DX009 (ip), vehicle: saline): 111 % of control
- T/C (dose: 4.0 mg/kg/injection, schedule: Q01DX009 (ip), vehicle: saline): 107 % of control
- T/C (dose: 8.0 mg/kg/injection, schedule: Q01DX009 (ip), vehicle: saline): 121 % of control
- T/C [13]: 112 % of control
- T/C [14]: 114 % of control

Structure (SMILES): CCOC(=O)Nc1ccc(/C=C\c2ccnc3ccccc23)cc1
- T/C [15]: 106 % of control
- T/C [16]: 115 % of control
- T/C [9]: 92 % of control and 94 % of control

Structure (SMILES): O=C(NC(CO)C(=O)OCc1ccccc1)OCc1ccccc1 (stereo not drawn)
- T/C [10]: 95 % of control
- T/C [2]: 100 % of control
- T/C [11]: 87 % of control
- T/C [4]: 100 % of control
- T/C [12]: 91 % of control
- T/C [6]: 100 % of control

Structure (SMILES): CC(=O)Oc1cc(OCCCc2ccc(F)cc2)cc2ccc3ccccc3c12
- T/C (dose: 25.0 mg/kg/injection, schedule: Q04DX002 (ip), vehicle: saline with Tween-80): 99 % of control
- T/C (dose: 50.0 mg/kg/injection, schedule: Q04DX002 (ip), vehicle: saline with Tween-80): 98 % of control
- T/C (dose: 100.0 mg/kg/injection, schedule: Q04DX002 (ip), vehicle: saline with Tween-80): 90 % of control

Structure (SMILES): CCCCCC(CN(C)C)C(=O)/C=C/c1ccc(Cl)c(Cl)c1 (stereo not drawn)
- T/C (dose: 2.75 mg/kg/injection, schedule: Q01DX009 (ip), vehicle: saline): 110 % of control
- T/C (dose: 4.12 mg/kg/injection, schedule: Q01DX009 (ip), vehicle: saline): 105 % of control
- T/C (dose: 50.0 mg/kg/injection, schedule: Q01DX001 (ip), vehicle: saline): 100 % of control

Structure (SMILES): CN(C)C1CCc2[nH]c3c(F)cc(F)cc3c2C1 (stereo not drawn)
- T/C (dose: 3.13 mg/kg/injection, schedule: Q01DX009 (ip), vehicle: saline with Tween-80): 95 % of control
- T/C (dose: 6.25 mg/kg/injection, schedule: Q01DX009 (ip), vehicle: saline with Tween-80): 103 % of control
- T/C [15]: 101 % of control

Structure (SMILES): CCCNCc1c2c(O)c3c(O)c(C)c4c(c3c1O)C(=O)C(C)(O/C=C/C(OC)C(C)C(OC(C)=O)C(C)C(O)C(C)C(O)C(C)/C=C/C=C(/C)C(=O)N2)O4 (stereo not drawn)
- T/C [9]: 90 % of control
- T/C [1]: 100 % of control

Structure (SMILES): Cc1ccc(S(=O)(=O)N2CCC(C(=O)O)(c3ccccc3)CC2)cc1
- T/C [2]: 100 % of control
- T/C [4]: 95 % of control
- T/C [6]: 95 % of control

Structure (SMILES): CC1(C)N=C(N)N=C(N)N1c1ccc(CCc2ccccc2)cc1
- T/C (dose: 22.0 mg/kg/injection, schedule: Q01DX009 (ip), vehicle: saline with Tween-80): 104 % of control
- T/C (dose: 33.0 mg/kg/injection, schedule: Q01DX009 (ip), vehicle: saline with Tween-80): 100 % of control
- T/C [9]: 112 % of control

Structure (SMILES): CSc1nc2nc(Cl)c(Cl)nc2[nH]1
- T/C (dose: 6.25 mg/kg/injection, schedule: Q01DX009 (ip), vehicle: saline): 104 % of control
- T/C (dose: 25.0 mg/kg/injection, schedule: Q01DX009 (ip), vehicle: saline): 96 % of control
- T/C [13]: 99 % of control
- T/C [14]: 102 % of control and 109 % of control
- T/C [7]: 88 % of control
- T/C [17]: 95 % of control and 103 % of control
- T/C [18]: 104 % of control
- T/C [8]: 109 % of control
- T/C [19]: 103 % of control

Structure (SMILES): N#C/C(=C\c1ccncc1)c1ccccc1
- T/C [15]: 92 % of control
- T/C [9]: 98 % of control
- T/C [1]: 112 % of control
- T/C [3]: 98 % of control

Structure (SMILES): Nc1nc2nc(N=Nc3ccccc3)[nH]c2c(=O)[nH]1
- T/C (dose: 50.0 mg/kg/injection, schedule: Q01DX005 (ip), vehicle: saline with Tween-80): 100 % of control
- T/C (dose: 100.0 mg/kg/injection, schedule: Q01DX005 (ip), vehicle: saline with Tween-80): 91 % of control
- T/C (dose: 200.0 mg/kg/injection, schedule: Q01DX005 (ip), vehicle: saline with Tween-80): 110 % of control

Structure (SMILES): Cc1nc(N)nc2nc[nH]c12
- T/C [15]: 94 % of control
- T/C [16]: 96 % of control
- T/C [9]: 99 % of control
- T/C [1]: 96 % of control

Structure (SMILES): Cc1ccc(NCc2nc(N)nc(Nc3ccc(C)cc3)n2)cc1
- T/C (dose: 50.0 mg/kg/injection, schedule: Q01DX001 (ip), vehicle: saline sonified): 100 % of control
- T/C (dose: 100.0 mg/kg/injection, schedule: Q01DX001 (ip), vehicle: saline sonified): 100 % of control
- T/C (dose: 200.0 mg/kg/injection, schedule: Q01DX001 (ip), vehicle: saline sonified): 90 % of control

Structure (SMILES): C=C(C)CC#N
- T/C [14]: 100 % of control
- T/C [17]: 109 % of control
- T/C [8]: 109 % of control

Structure (SMILES): CCOC(=O)CCN1CCCC1
- T/C [7]: 100 % of control
- T/C [17]: 100 % of control
- T/C [18]: 91 % of control
- T/C [8]: 100 % of control
- T/C (dose: 400.0 mg/kg/injection, schedule: Q01DX009 (ip), vehicle: saline): 100 % of control
- T/C [19]: 95 % of control

Structure (SMILES): Cc1ccc(S(=O)(=O)/N=C/NN(C)C)cc1
- T/C [9]: 97 % of control
- T/C [1]: 112 % of control
- T/C [3]: 98 % of control

Structure (SMILES): Cc1ccc(CNc2ccc(C)c(Cl)c2)cc1
- T/C (dose: 100.0 mg/kg/injection, schedule: Q01DX009 (ip), vehicle: other): 104 % of control
- T/C (dose: 200.0 mg/kg/injection, schedule: Q01DX009 (ip), vehicle: other): 113 % of control
- T/C (dose: 400.0 mg/kg/injection, schedule: Q01DX009 (ip), vehicle: other): 118 % of control

Structure (SMILES): CC1=C(/C=C/C(C)=C/C=C/C(C)=C/CO)C(C)(C)CCC1
- T/C [9]: 92 % of control
- T/C [1]: 96 % of control
- T/C [3]: 96 % of control

Structure (SMILES): CCCCCCCCCCCCCCCCCCSc1ccccc1
- T/C (dose: 6.25 mg/kg/injection, schedule: Q04DX003 (ip), vehicle: saline sonified): 110 % of control
- T/C (dose: 12.5 mg/kg/injection, schedule: Q04DX003 (ip), vehicle: saline sonified): 100 % of control
- T/C (dose: 25.0 mg/kg/injection, schedule: Q04DX003 (ip), vehicle: saline sonified): 110 % of control
